Assay results reported in the supplement of paper PMC12137928.
Where a name gives a salt, the structure may show the parent alone.

System: HCT116
Settings: 72 h
Procedure, shortened: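 HCT116 cells went into 1536-well plates at 250 per well. CellTiter-Glo luminescence was expressed relative to vehicle (0%) and positive control (-100%) and then pattern-corrected. Both IC50 and maximal efficacy were taken from four-parameter Hill fits.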

Structure (SMILES)	IC50 cell viability (ICRF193 0 nM)	IC50 cell viability (ICRF193 200 nM)
Cc1c(C)c2c(c(C)c1O)CCC(C)(COc1ccc(CC3SC(=O)NC3=O)cc1)O2 (stereo not given) [Troglitazone]	> 45.8 µM	> 45.8 µM
CO[C@H]1C[C@H](O[C@H]2[C@H](C)[C@@H](O[C@@H]3O[C@H](C)C[C@H](N(C)C)[C@H]3OC(C)=O)[C@@H](C)C[C@@]3(CO3)C(=O)[C@H](C)[C@@H](OC(C)=O)[C@@H](C)[C@@H](C)OC(=O)[C@@H]2C)O[C@@H](C)[C@@H]1OC(C)=O [Troleandomycin]	> 45.8 µM	> 45.8 µM
NC(CO)(CO)CO [Tromethamine]	> 45.8 µM	> 45.8 µM
CCN(Cc1ccncc1)C(=O)C(CO)c1ccccc1 (stereo not given) [Tropicamide]	> 45.8 µM	> 45.8 µM
CN1[C@@H]2CC[C@H]1C[C@@H](OC(=O)c1c[nH]c3ccccc13)C2 [Tropisetron]	> 45.8 µM	> 45.8 µM
O=C(O[C@H]1C[C@H]2CC[C@@H](C1)[N+]21CCCC1)C(O)(c1ccccc1)c1ccccc1 [Trospium chloride]	> 45.8 µM	> 45.8 µM
Nc1ccn([C@@H]2CO[C@H](CO)O2)c(=O)n1 [Troxacitabine]	> 45.8 µM	> 45.8 µM
COc1cc(C(=O)NC2CCCNC2)cc(OC)c1OC (stereo not given) [Troxipide]	> 45.8 µM	> 45.8 µM
CC(C)(C)NCC(O)c1ccccc1Cl (stereo not given) [Tulobuterol hydrochloride]	> 45.8 µM	> 45.8 µM
CC(C)C[C@H](NC(=O)[C@@H](O)[C@H](N)Cc1ccccc1)C(=O)O [Ubenimex]	> 45.8 µM	> 45.8 µM
OC(c1ccccc1)(c1ccccc1)C12CC[N+](CCOCc3ccccc3)(CC1)CC2 [Umeclidinium bromide]	> 45.8 µM	> 45.8 µM
Oc1ncc(N(CCCl)CCCl)c(O)n1 [Uracil mustard]	> 45.8 µM	> 45.8 µM
O=c1cc[nH]c(=O)[nH]1 [Uracil]	> 45.8 µM	> 45.8 µM

Results, then the molecule that gave them:

IC50 cell viability (ICRF193 0 nM)	IC50 cell viability (ICRF193 200 nM)	Structure (SMILES)
> 45.8 µM	> 45.8 µM	COc1ccccc1N1CCN(CCCNc2cc(=O)n(C)c(=O)n2C)CC1 [Urapidil hydrochloride]
> 45.8 µM	> 45.8 µM	CC(=O)OC[C@H]1O[C@@H](n2ccc(=O)[nH]c2=O)[C@H](OC(C)=O)[C@@H]1OC(C)=O [Uridine triacetate]
> 45.8 µM	> 45.8 µM	C[C@H](CCC(=O)O)[C@H]1CC[C@H]2[C@@H]3[C@@H](O)C[C@@H]4C[C@H](O)CC[C@]4(C)[C@H]3CC[C@]12C [Ursodiol]
> 45.8 µM	> 45.8 µM	CCCCC(=O)N(Cc1ccc(-c2ccccc2-c2nnn[nH]2)cc1)[C@H](C(=O)O)C(C)C [VALSARTAN]
> 45.8 µM	> 45.8 µM	NCCC[C@H](N)CC(=O)N[C@H]1CNC(=O)[C@H]([C@H]2C[C@H](O)NC(N)=N2)NC(=O)/C(=C/NC(N)=O)NC(=O)[C@H](CO)NC(=O)[C@H](CO)NC1=O [VIOMYCIN SULFATE]
> 45.8 µM	> 45.8 µM	O=C(O)C[C@@H]1CC[C@H](NC(=O)Cc2cccs2)B(O)O1 [Vaborbactam]
> 45.8 µM	> 45.8 µM	CC(C)[C@H](N)C(=O)OCCOCn1cnc2c(=O)nc(N)[nH]c21 [Valaciclovir]
